Experimental data as given in patent US11439148B2, “Pyrimidine derivatives” (SYNGENTA PARTICIPATIONS AG, priority 2017, dated 2022).
Values joined by “and” are separate entries in the source; they are usually repeats but may differ in a detail not shown here. Identical values can stand only once.

How the values were obtained:
Type in all cases: in vivo
[1] = tested on: four weed species (ALOMY, AVEFA, LOLPE, SETVI); test: Adjuvant efficacy with pinoxaden, glasshouse spray test, average over all species; settings: pinoxaden EC, mean over 7.5 and 15 g/ha, adjuvant 0.2% v/v (none in No Adjuvant rows), 21 days, average of ALOMY
Method: The efficacy of adjuvants 1-12 as adjuvants for the herbicide pinoxaden were tested in a glasshouse against four weed species, sown into standard soil in pots and cultivated under controlled conditions in a glasshouse (at 20/16° C. day/night; 16 hours light; 65% humidity). Pinoxaden was added to the spray tank as a standard EC (emulsifiable concentrate) formulation.
The spray tests were also carried out using pinoxaden in conjunction with adjuvants 1-12. The adjuvants were added to the spray solution at a rate of 0.2% v/v unless otherwise stated. All spray solutions also contained 10% w/w of iso-Propanol. The weed species and their BBCH growth stage at spraying were Avena fatua (AVEFA; growth stage 12), Lolium perenne (LOLPE; growth stage 13), Alopecurus myosuroides (ALOMY; growth stage 13), and Setaria viridis (SETVI; growth stage 13-14). Each spray test was replicated three times. The test plants were then grown in a glasshouse under controlled conditions (at 20/16° C. day/night; 16 hours light; 65% humidity) and watered twice a day. The efficacy of the herbicide was assessed visually and expressed as a percentage of the leaf area killed. Samples were assessed at a time period of 21 days following application. The results shown in Table 4 below are mean averages over the two rates of pinoxaden, and the three replicates.

[2] = tested on: weed species BRAPP, COMBE, DIGSA, POLCO; test: Adjuvant efficacy with mesotrione, glasshouse spray test, average over all species (BRAPP set); settings: mesotrione SC, mean over 30 and 60 g/ha; adjuvant 0.2% v/v (none in No Adjuvant rows); 21 days; Tests 1-3, species set with BRAPP (COMBE only in Test 2)
Method: (§1) The efficacy of adjuvants 1-12 as an adjuvant for the herbicide mesotrione was tested in a glasshouse against four weed species sown into standard soil in pots and cultivated under controlled conditions in a glasshouse (at 24/18° C. day/night; 16 hours light; 65% humidity). Mesotrione was added to the spray tank as a standard SC (suspension concentrate) formulation.
(§2) The spray tests were also carried out using mesotrione in conjunction with adjuvants 1-12. The adjuvants were added to the spray solution at a rate of 0.2% v/v unless otherwise stated. All spray solutions also contained 10% w/w of iso-Propanol. The weed species and their BBCH growth stage at spraying were Brachiaria platyphylla (BRAPP; growth stage 13-14) or Brachiaria plantaginea (BRAPL; growth stage 13-14), Commelina benghalensis (COMBE; growth stage 13), Digitaria sanguinalis (DIGSA; growth stage 14), and Polygonum convolvulus (POLCO; growth stage 13-14). Each spray test was replicated three times.
(§3) The test plants were then grown in a glasshouse under controlled conditions (at 24/18° C. day/night; 16 hours light; 65% humidity) and watered twice a day. The efficacy of the herbicide was assessed visually and expressed as a percentage of the leaf area killed. Samples were assessed at a time period of 21 days following application. The results shown in Table 3 below are mean averages over the two rates of mesotrione and the three replicates.

[3] = tested on: Digitaria sanguinalis (DIGSA); test: Adjuvant efficacy with mesotrione, glasshouse spray test; settings: mesotrione SC, mean over 30 and 60 g/ha and 3 replicates; adjuvant 0.2% v/v (none in No Adjuvant rows); % leaf area killed, 21 days after application; Tests 1-4 separate runs
Method: as §1, §2, §3

[4] = tested on: Polygonum convolvulus (POLCO); test: as above; settings: mesotrione SC, mean over 30 and 60 g/ha and 3 replicates; adjuvant 0.2% v/v (none in No Adjuvant rows); % leaf area killed, 21 days after application; Tests 1-4 separate runs
Method: as §1, §2, §3

[5] = tested on: Brachiaria platyphylla (BRAPP); test: as above; settings: mesotrione SC, mean over 30 and 60 g/ha and 3 replicates; adjuvant 0.2% v/v (none in No Adjuvant rows); % leaf area killed, 21 days after application; Tests 1-3 separate runs
Method: as §1, §2, §3

Septoria tritici [6] = test: Adjuvant efficacy with isopyrazam on inoculated wheat plants; settings: isopyrazam SC, mean over 6.5, 16, 40 and 100 mg/l and 4 replicates, sprayed 4 days after inoculation, percentage of leaf area infected 17-18 days after infection, Tests 1-3 separate runs
Method: Adjuvants 6, 7, 8 and 10 were tested as adjuvants for agrochemical compositions comprising isopyrazam.
Two week old wheat plants were inoculated with the fungus Septoria tritici. […] All spray solutions also contained 10% v/v of iso-Propanol. The leaves of the plants were assessed visually 17-18 days after infection and the damage was expressed as the percentage of the leaf area infected. Each spray test was replicated four times across the four application rates.
The results shown in Table 6 below are mean averages over the four rates of isopyrazam and the four replicates.

Septoria tritici [7] = test: Adjuvant efficacy with epoxiconazole on inoculated wheat plants; settings: epoxiconazole SC 1.5, 4, 8.5 and 20 mg/l, 4 replicates, adjuvant 0.1% v/v (none in No Adjuvant rows), sprayed 4 days after inoculation, percentage of leaf area infected 17-18 days after infection, Tests 1-3 separate runs
Method: Adjuvants 6, 7, 8 and 10 were tested as adjuvants for agrochemical compositions comprising epoxiconazole.
Two week old wheat plants were inoculated with the fungus Septoria tritici. […] All spray solutions also contained 10% v/v of iso-Propanol. The leaves of the plants were assessed visually 17-18 days after infection and the damage was expressed as the percentage of the leaf area infected.

[8] = tested on: Commelina benghalensis (COMBE); test: Adjuvant efficacy with mesotrione, glasshouse spray test; settings: mesotrione SC, mean over 30 and 60 g/ha and 3 replicates; adjuvant 0.2% v/v (none in No Adjuvant rows); % leaf area killed, 21 days after application; Tests 2 and 4
Method: as §1, §2, §3

[9] = tested on: weed species BRAPL, COMBE, DIGSA, POLCO; test: Adjuvant efficacy with mesotrione, glasshouse spray test, average over all species (BRAPL set); settings: mesotrione SC, mean over 30 and 60 g/ha, adjuvant 0.2% v/v (none in No Adjuvant rows), 21 days, Test 4, average of BRAPL
Method: as §1, §2
as §3, with “The results shown in Table 3 below are mean averages over the two rates of mesotrione and the three replicates.” left out

[10] = tested on: Brachiaria plantaginea (BRAPL); test: Adjuvant efficacy with mesotrione, glasshouse spray test; settings: mesotrione SC, mean over 30 and 60 g/ha and 3 replicates; adjuvant 0.2% v/v (none in No Adjuvant rows); % leaf area killed, 21 days after application; Test 4
Method: as §1, §2, §3

Row | SMILES | Mean % Herbicidal Activity Average over all Species [1] | Mean % Herbicidal Activity Average over all Species [2] [%] | Mean % Herbicidal Activity DIGSA [3] | Mean % Herbicidal Activity POLCO [4] | Mean % Herbicidal Activity BRAPP [5] [%] | Disease Damage Mean (Septoria tritici [6]) | Disease Damage Mean (Septoria tritici [7]) | Mean % Herbicidal Activity COMBE [8] | Mean % Herbicidal Activity Average over all Species [9] [%] | Mean % Herbicidal Activity BRAPL [10] [%]
1 | CCCCCCOc1cc(OCCOCCOC)ncn1 [Adjuvant 1] | 55% | 72 | 81% | 81% | 53 |  |  |  |  | 
2 | CCCCCCOc1cc(OCCOCCOCCOCCOCCOCCOCCOCCOCCOCCOC)ncn1 [Adjuvant 2] | 47% | 75 | 79% | 94% | 52 |  |  |  |  | 
3 | CCCCCCOc1cc(OCCOCCOCCOCCOCCOCCOCCOCCOCCOCCOCCOCCOCCOCCOCCOCCOCCOCCOCCOCCOC)ncn1 [Adjuvant 3] | 44% | 71 | 83% | 92% | 38 |  |  |  |  | 
4 | CCCCCCCCCOc1cc(OCCOCCOCCOCCOCCOCCOCCOC)ncn1 [Adjuvant 4] | 52% | 73 | 83% | 93% | 43 |  |  |  |  | 
5 | CCCCCCCCCOc1cc(OCCOCCOCCOCCOCCOCCOCCOCCOCCOCCOC)ncn1 [Adjuvant 5] | 41% | 71 | 72% | 94% | 48 |  |  |  |  | 
6 | CCCCCCCCCCCCOc1cc(OCCOCCOCCOCCOCCOCCOCCOC)ncn1 [Adjuvant 6] | 63% | 76 | 83% | 84% | 53 | 7% and 9% and 12% | 42% and 10% and 21% | 83% |  | 
7 | CCCCCCCCCCCCOc1cc(OCCOCCOCCOCCOCCOCCOCCOCCOCCOCCOC)ncn1 [Adjuvant 7] | 84% | 73 | 80% | 70% | 68 | 12% | 12% |  |  | 
8 | CCCCCCCCCCCCCCCCOc1cc(OCCOCCOCCOCCOCCOCCOCCOCCOCCOCCOC)ncn1 [Adjuvant 8] | 69% and 56% and 67% |  | 84% and 81% and 83% | 82% and 92% and 93% |  | 20% | 36% | 85% and 79% | 72 | 33
9 | CCCCCCCCC=CCCCCCCCCOc1cc(OCCOCCOC)ncn1 [Adjuvant 9] | 58% | 81 | 82% | 92% | 69 |  |  |  |  | 
10 | CCCCCCCCC=CCCCCCCCCOc1cc(OCCOCCOCCOCCOCCOCCOCCOCCOCCOCCOC)ncn1 [Adjuvant 10] | 50% | 80 | 84% | 95% | 61 | 17% and 14% | 26% |  |  | 
11 | CCCCCCCCC=CCCCCCCCCOc1cc(OCCOCCOCCOCCOCCOCCOCCOCCOCCOCCOCCOCCOCCOCCOCCOCCOCCOCCOCCOCCOC)ncn1 [Adjuvant 11] | 38% | 78 | 83% | 92% | 58 |  |  |  |  | 
12 | CCCCCCCCCCCCOc1cc(OCC(C)OCC(C)OCC(C)OC)ncn1 (stereo not shown) [Adjuvant 12] | 70% | 84 | 84% | 98% | 69 |  |  |  |  | 
